Measured values taken from publication doi:10.1101/2023.05.15.540887, “Comparative analysis of drug-like EP300/CREBBP acetyltransferase inhibitors” (bioRxiv, 2023).
Where two headings read alike, the source gives them in different places.

Columns and labels:
SR = experiment: NCI-60 growth inhibition (sulforhodamine B); assay type: cell-based, human; conditions: SR (Leukemia), negative log of Molar conc., LCONC -8
PC-3 = experiment: NCI-60 growth inhibition (sulforhodamine B); assay type: cell-based; conditions: Homo sapiens, PC-3, Prostate Cancer, negative log of Molar value, LCONC -8, EXPID 2301NS84
DU-145 = experiment: NCI-60 growth inhibition (sulforhodamine B); assay type: cell-based; conditions: Homo sapiens, DU-145, Prostate Cancer, negative log of Molar value, LCONC -8, EXPID 2301NS84
MCF7 = experiment: NCI-60 growth inhibition (sulforhodamine B); assay type: cell-based; conditions: Homo sapiens, MCF7, Breast Cancer, negative log of Molar value, LCONC -8, EXPID 2301NS84
OVCAR-8 = experiment: NCI-60 growth inhibition (sulforhodamine B); assay type: cell-based, human; conditions: OVCAR-8 (Ovarian Cancer), negative log of Molar conc., LCONC -8
OVCAR-3 = experiment: NCI-60 growth inhibition (sulforhodamine B)
SN12C = experiment: NCI-60 growth inhibition (sulforhodamine B); assay type: cell-based; conditions: Homo sapiens, Renal Cancer, negative log of Molar value
HL-60(TB) = experiment: NCI-60 growth inhibition (sulforhodamine B); assay type: cell-based, human; conditions: HL-60(TB) (Leukemia), negative log of Molar conc., LCONC -8
UACC-257 = experiment: NCI-60 growth inhibition (sulforhodamine B); assay type: cell-based, human; conditions: UACC-257 (Melanoma), negative log of Molar conc., LCONC -8
SF-268 = experiment: NCI-60 growth inhibition (sulforhodamine B); assay type: cell-based, human
COLO205 = experiment: NCI-60 growth inhibition (sulforhodamine B); assay type: cell-based, human; conditions: COLO 205 (Colon Cancer), negative log of Molar conc., LCONC -8
A549/ATCC = experiment: NCI-60 growth inhibition (sulforhodamine B); assay type: cell-based, human; conditions: A549/ATCC (Non-Small Cell Lung Cancer), negative log of Molar conc., LCONC -8
SW-620 = experiment: NCI-60 growth inhibition (sulforhodamine B); assay type: cell-based, human; conditions: SW-620 (Colon Cancer), negative log of Molar conc., LCONC -8
M14 [1] = conditions: M14 (Melanoma); negative log of Molar conc.; LCONC -8
OVCAR-5 = experiment: NCI-60 growth inhibition (sulforhodamine B); assay type: cell-based, human; conditions: OVCAR-5 (Ovarian Cancer), negative log of Molar conc., LCONC -8
M14 [2] = experiment: cells; conditions: Homo sapiens
MDA-MB-468 = experiment: NCI-60 growth inhibition (sulforhodamine B); conditions: Homo sapiens
MDA-MB-231/ATCC = experiment: NCI-60 growth inhibition (sulforhodamine B); assay type: cell-based; conditions: Homo sapiens, Breast Cancer, negative log of Molar value, LCONC -8, EXPID 2301NS84, read-out: IC50 NLOGVALUE
NCI-H322M = experiment: NCI-60 growth inhibition (sulforhodamine B); assay type: cell-based, human; conditions: NCI-H322M (Non-Small Cell Lung Cancer), negative log of Molar conc., LCONC -8
MCF10A PANK4 KO+EV cells = experiment: Sulforhodamine B cell growth assay, MCF10A PANK4 KO+EV; assay type: cell-based, human
[3] = Homo sapiens, read-out: GI50 NLOGVALUE (converted)
[4] = Homo sapiens, read-out: IC50 NLOGVALUE (converted)
[5] = Homo sapiens, read-out: IC50 NLOGVALUE
[6] = Homo sapiens, read-out: LC50 NLOGVALUE

With `C[C@H](CN[C@@H](C(=O)Nc1ccc(-c2cnn(C)c2)cn1)c1ccccc1)c1ccc(C#N)cc1` [CPI-1612] the GI50 (SR; [3]) was 1.86 µM, the IC50 (SR; [4]) was 56.2 µM and the “TGI NLOGVALUE” (SR) was 4. The GI50 (PC-3; read-out: GI50 NLOGVALUE) was < 0.01 µM, the IC50 (PC-3; read-out: IC50 NLOGVALUE (converted)) was 0.447 µM and the CC50 (PC-3; read-out: LC50 NLOGVALUE) was > 100 µM. The GI50 (DU-145; read-out: GI50 NLOGVALUE (converted)) was 21.4 µM, the IC50 (DU-145; read-out: IC50 NLOGVALUE) was > 100 µM and the CC50 (DU-145; read-out: LC50 NLOGVALUE) was > 100 µM. The GI50 (MCF7; read-out: GI50 NLOGVALUE) was < 0.01 µM, the IC50 (MCF7; read-out: IC50 NLOGVALUE) was < 0.01 µM and the GI50 (OVCAR-8; [3]) was 40.7 µM. For the same compound, the IC50 (OVCAR-8; [5]) was > 100 µM, the CC50 (OVCAR-8; [6]) was > 100 µM and the “TGI NLOGVALUE” (OVCAR-8) was 4. The GI50 (OVCAR-3; Homo sapiens, OVCAR-3, read-out: GI50 NLOGVALUE) was 0.186 µM, the IC50 (OVCAR-3; Homo sapiens, OVCAR-3, read-out: IC50 NLOGVALUE) was 24 µM and the CC50 (OVCAR-3; Homo sapiens, OVCAR-3, read-out: LC50 NLOGVALUE) was > 100 µM. For the same compound, the “TGI NLOGVALUE” (OVCAR-3; OVCAR-3 (Ovarian Cancer), negative log of Molar conc., LCONC -8) was 4, the GI50 (SN12C; LCONC -8, EXPID 2301NS84, read-out: GI50 NLOGVALUE (converted)) was 0.224 µM and the IC50 (SN12C; LCONC -8, EXPID 2301NS84, read-out: IC50 NLOGVALUE) was > 100 µM. For the same compound, the CC50 (SN12C; LCONC -8, EXPID 2301NS84, read-out: LC50 NLOGVALUE) was > 100 µM, the “TGI NLOGVALUE” (HL-60(TB)) was 4.6 and the GI50 (HL-60(TB); [3]) was 0.0132 µM. For the same compound, the IC50 (HL-60(TB); [4]) was 15.5 µM, the CC50 (HL-60(TB); [6]) was > 100 µM and the IC50 (UACC-257; [5]) was > 100 µM. The CC50 (UACC-257; [6]) was > 100 µM, the “TGI NLOGVALUE” (UACC-257) was 4 and the GI50 (SF-268; Homo sapiens, SF-268, read-out: GI50 AVGDATA (converted)) was 0.676 µM. For the same compound, the GI50 (SF-268; Homo sapiens, SF-268 (CNS Cancer), negative log of Molar conc., LCONC -8, read-out: GI50 NLOGVALUE (converted)) was 0.692 µM, the IC50 (SF-268; Homo sapiens, SF-268 (CNS Cancer), negative log of Molar conc., LCONC -8, read-out: IC50 NLOGVALUE (converted)) was 79.4 µM and the CC50 (SF-268; Homo sapiens, SF-268 (CNS Cancer), negative log of Molar conc., LCONC -8, read-out: LC50 NLOGVALUE) was > 100 µM. For the same compound, the “TGI NLOGVALUE” (SF-268; SF-268 (CNS Cancer), negative log of Molar conc., LCONC -8) was 4, the “TGI NLOGVALUE” (COLO205) was 4 and the GI50 (COLO205; [3]) was 0.0245 µM. The IC50 (COLO205; [4]) was 0.417 µM, the “TGI NLOGVALUE” (A549/ATCC) was 4 and the GI50 (A549/ATCC; [3]) was 3.31 µM. For the same compound, the IC50 (A549/ATCC; [4]) was 19.1 µM, the GI50 (SW-620; [3]) was 0.417 µM and the IC50 (SW-620; [4]) was 6.76 µM. For the same compound, the CC50 (SW-620; [6]) was > 100 µM, the “TGI NLOGVALUE” (SW-620) was 4 and the “TGI NLOGVALUE” (M14 [1]) was 4. The GI50 (OVCAR-5; Homo sapiens, read-out: GI50 NLOGVALUE) was > 100 µM, the IC50 (OVCAR-5; [5]) was > 100 µM and the CC50 (OVCAR-5; [6]) was > 100 µM. For the same compound, the “TGI NLOGVALUE” (OVCAR-5) was 4, the GI50 (M14 [2]; M14, read-out: GI50 NLOGVALUE) was 0.0214 µM and the IC50 (M14 [2]; M14, read-out: IC50 NLOGVALUE) was 44.7 µM. For the same compound, the CC50 (M14 [2]; M14, read-out: LC50 NLOGVALUE) was > 100 µM, the GI50 (MDA-MB-468; MDA-MB-468, read-out: GI50 NLOGVALUE) was < 0.01 µM and the IC50 (MDA-MB-468; MDA-MB-468, read-out: IC50 NLOGVALUE) was > 100 µM. For the same compound, the IC50 (MDA-MB-231/ATCC) was > 100 µM, the GI50 (NCI-H322M; [3]) was 0.288 µM and the IC50 (NCI-H322M; [5]) was > 100 µM. The “TGI NLOGVALUE” (NCI-H322M) was 4, the IC50 (MCF10A PANK4 KO+EV cells; Homo sapiens, MCF-10A KO+EV, 72 h) was 0.084 µM and the “growth inhibition activity at 1 μM” value (MCF10A PANK4 KO+EV cells; PANK4 KO+EV cells, 1 μM) was “remains active”.
